Measurements as given in US20100048660A1, “TREATMENT OF DUCHENNE MUSCULAR DYSTROPHY” (priority 2006, published 2010).

Test system: Utrophin A promoter linked to a luciferase reporter gene (H2K/mdx/Utro A reporter cell line)
Test: Luciferase reporter assay (murine H2K cells)
Assay type: cell-based
Details: Mus musculus; Table 1; murine H2K mdx myoblasts, compound final concentration 10 μM, 48 hrs; read-out: Activity (luciferase reporter assay, relative to control)
Procedure: 1. Luciferase Reporter Assay (Murine H2K Cells)
The cell line used for the screen is an immortalized mdx mouse H2K cell line that has been stably transfected with a plasmid containing ≈5 kb fragment of the Utrophin A promoter including the first untranslated exon linked to a luciferase reporter gene (see FIG. 1).
Under conditions of low temperature and interferon containing media, the cells remain as myoblasts. These are plated into 96 well plates and cultured in the presence of compound for three days. The level of luciferase is then determined by cell lysis and reading of the light output from the expressed luciferase gene utilising a plate luminometer.
The H2K/mdx/Utro A reporter cell line was passaged twice a week until ≦30% confluent. The cells were grown at 33° C. in the presence of 10% CO2
The H2K/mdx/Utro A reporter cell line cells were plated out into 96 well plates (Falcon 353296, white opaque) at a density of approximately 5000 cells/well in 190 μl normal growth medium. The plates were then incubated at 33° C. in the presence of 10% CO2 for 24 hrs.
Compounds were dosed by adding 10 μl of diluted compound to each well giving a final concentration of 10 μM. The plates were then incubated for a further 48 hrs
Cells were then lysed in situ following the manufacture's protocols (Promega Steady-Glo Luciferase Assay System (E2520). Then counted for 10 seconds using a plate luminometer (Victorl420).

Compound	activity at 10 µM [%]
O=[N+]([O-])c1ccc2cn(-c3ccc(Cl)cc3)nc2c1 [Example 45, 2-(4-chlorophenyl)-6-nitro-2H-indazole]	< 200
CCN(CC)c1ccc(-n2nc3ccc(NC(=O)c4ccco4)cc3n2)cc1 [Example 27, N-(2-(4-(diethylamino)phenyl)-2H-benzo[d][1,2,3]triazol-5-yl)furan-2-carboxamide]	< 200
